Tests used:
[1] = system: larvae of the mustard beetle (Phaedon cochleariae); assay: Phaedon cochleariae larvae test (sprayed cabbage leaves); settings: single active compound, 100 g/ha
[2] = system: two-spotted spider mite (Tetranychus urticae); assay: Tetranychus urticae test (sprayed dwarf bean leaves); format: in vivo; settings: single active compound
Description: (§1) Solvents: 78 parts by weight of acetone

[3] = system: green peach aphid (Myzus persicae); assay: Myzus persicae test (sprayed cabbage leaves); format: in vivo; settings: single active compound, 100 g/ha
Description: as §1

[4] = system: larvae of the army worm (Spodoptera frugiperda); assay: Spodoptera frugiperda test (sprayed cabbage leaves); format: in vivo; settings: single active compound, 100 g/ha
Description: as §1

SMILES | Kill level in % after 6d [1] [%] | Kill rate in % after 2d ([2]; 0.8 g/ha) [%] | Kill level in % after 6d [3] [%] | Kill level in % after 6d [4] [%] | Kill rate in % after 2d ([2]; 0.032 g/ha) [%] | Kill rate in % after 2d ([2]; 0.16 g/ha) [%]
Cc1nn(C)c(/C(OC(=O)C(C)(C)C)=C(\C#N)c2ccc(C(C)(C)C)cc2)c1C [Cyenopyrafen, (1E)-2-cyano-2-[4-(1,1-dimethylethyl)phenyl]-1-(1,3,4-trimethyl-1H-pyrazol-5-yl)ethenyl 2,2-dimethylpropanoate] | 50 | 80 | 0 | – | – | –
COCCOC(=O)C(C#N)(C(=O)c1ccccc1C(F)(F)F)c1ccc(C(C)(C)C)cc1 (stereo not drawn) [Cyflumetofen, 2-methoxyethyl alpha-cyano-alpha-[4-(1,1-dimethylethyl)phenyl]-beta-oxo-2-(trifluoromethyl)benzenepropanoate] | 0 | 20 | 0 | 0 | – | –
CSC(=O)O/C(=C(/C#N)c1ccc(Cl)cc1)c1ccccc1C(F)(F)F [IKA 2002] | 33 | 0 | – | 0 | 0 | –
CCC(C)(C)C(=O)OC1=C(c2ccc(Cl)cc2Cl)C(=O)OC12CCCCC2 [Spirodiclofen] | – | 10 | – | – | – | –
Cc1cc(C)c(C2=C(OC(=O)CC(C)(C)C)C3(CCCC3)OC2=O)c(C)c1 [Spiromesifen] | – | 10 | 70 | – | – | 0
CCOC(=O)OC1=C(c2cc(C)ccc2C)C(=O)N[C@]12CC[C@@H](OC)CC2 [Spirotetramat] | 33 | 0 | – | 50 | – | –

Source: US8816097B2, “Active ingredient combinations having insecticide and acaricide properties” (Bayer CropScience AG, priority 2006, dated 2014)
